Where a name gives a salt, the structure may show the parent alone.

The melting point is the temperature, or range, at which the solid turns liquid.

Take `COCC[C@H]1CN(C2=Nc3ccccc3Sc3sc(C(C)C)cc32)CCN1.Cl.Cl`: the melting point is 149 to 152 °C (dec.).

`CCc1cc2c(s1)Sc1ccccc1N=C2N1CCN(C)[C@@H](CCOC)C1.Cl.Cl`: the melting point is 181 to 187 °C.

In the case of `COCC[C@H]1CN(C2=Nc3ccccc3Sc3sc(C(C)C)cc32)CCN1C.Cl.Cl`, the melting point is 143 to 147 °C (dec.). On to `CN1CCN(C2=Nc3ccccc3Sc3ccccc32)C[C@@H]1CCc1ccccc1`, for which the melting point is 44 to 54 °C. In turn, `c1ccc(C[C@@H]2CN(C3=Nc4ccccc4Sc4ccccc43)CCN2)cc1` registered a melting point of 56 to 69 °C. In the case of `CN1CCN(C2=Nc3ccccc3Sc3ccccc32)C[C@H]1Cc1ccccc1` it was 46 to 63 °C; in that of `c1ccc(CC[C@H]2CN(C3=Nc4ccccc4Sc4ccccc43)CCN2)cc1`, 48 to 59 °C; in that of `c1ccc(C[C@H]2CN(C3=Nc4ccccc4Sc4ccccc43)CCN2)cc1`, 54 to 71 °C. Consider `CN1CCN(C2=Nc3ccccc3Sc3ccccc32)C[C@@H]1Cc1ccccc1`, for which the melting point lay within 48 to 64 °C. Consider `CCc1nc2c(s1)Sc1ccccc1N=C2N1CCN(C)[C@@H](CCc2ccc(OC)cc2)C1.Cl`, for which the melting point fell in the range of 129 to 130 °C. In the case of `CCc1nc2c(s1)Sc1ccccc1N=C2N1CCN(C)[C@@H](CCc2cccc(F)c2)C1.Cl` it was 133 to 135 °C; in that of `CC(=O)c1nc2c(s1)Sc1ccccc1N=C2N1CCN(C)[C@@H](CCc2cccc(F)c2)C1.Cl.Cl`, 130 to 132 °C. In the case of `COCC[C@H]1CN(C2=Nc3ccccc3Sc3sc(C(C)=O)nc32)CCN1C.Cl.Cl` it was 138 to 140 °C; in that of `COCC[C@H]1CN(C2=Nc3ccccc3Sc3scnc32)CCN1` (as salt: hydrochloride), 184 to 186 °C.

In the case of `COCC[C@H]1CN(C2=Nc3ccccc3Sc3scnc32)CCN1C` (as salt: hydrochloride), the melting point fell in the range of 146 to 148 °C.

For the origin of these results see patent US20060270656A1, “Substituted piperazines of azepines, oxazepines and thiazepines” (ELI LILLY AND COMPANY, priority 2003, published 2006).
